≈ marks a conversion by molar mass, not a printed value. Like-named read-outs stand apart in the source and are kept apart here.
Columns and labels:
Type in all cases: cell-based
E. faecium ATCC 35667 = assay: MIC, Gram-positive bacteria: E. faecium ATCC 35667; conditions: Enterococcus faecium, ATCC35667, column 2, read-out: Minimal Inhibitory Concentration (MIC) E. faecium ATCC 35667
Gram-Negative Organisms = assay: microbe, parasite or virus in culture
E. faecium VRE; vanA = assay: MIC, Gram-positive bacteria: E. faecium VRE; vanA; conditions: Enterococcus faecium, column 3, read-out: Minimal Inhibitory Concentration (MIC) E. faecium VRE
H. influenzae ATCC 49247 = assay: MIC, Gram-negative bacteria: H. influenzae ATCC 49247; conditions: Haemophilus influenzae, ATCC49247, read-out: Minimal Inhibitory Concentration (MIC) H. influenzae ATCC 49247
[1] = system: S. aureus Vat A streptogramin; assay: MIC, Gram-positive bacteria: S. aureus Vat A streptogramin; conditions: Staphylococcus aureus; Gram-positive; column 5; read-out: Minimal Inhibitory Concentration (MIC) S. aureus Vat A streptogramin
S. pneumoniae = assay: MIC, Gram-positive bacteria: S. pneumoniae; conditions: Streptococcus pneumoniae, column 10, read-out: Minimal Inhibitory Concentration (MIC) S. pneumoniae
[2] = system: S. aureus Linezolid-resistant; cfr; assay: MIC, Gram-positive bacteria: S. aureus Linezolid-resistant; cfr; conditions: Staphylococcus aureus, column 9, read-out: Minimal Inhibitory Concentration (MIC) S. aureus Linezolid-resistant
[3] = system: K. pneumoniae multidrug-resistant; assay: MIC, Gram-negative bacteria: K. pneumoniae multidrug-resistant; conditions: Klebsiella pneumoniae, read-out: Minimal Inhibitory Concentration (MIC) K. pneumoniae multidrug-resistant
S. aureus = assay: MIC, Gram-positive bacteria: S. aureus (strains not named); conditions: Staphylococcus aureus, read-out: Minimal Inhibitory Concentration (MIC) S. aureus
E. faecalis = assay: MIC, Gram-positive bacteria: E. faecalis; conditions: Enterococcus faecalis, column 1, read-out: Minimal Inhibitory Concentration (MIC) E. faecalis
P. aeruginosa ATCC 27853 = assay: MIC, Gram-negative bacteria: P. aeruginosa ATCC 27853; conditions: Pseudomonas aeruginosa, ATCC27853, read-out: Minimal Inhibitory Concentration (MIC) P. aeruginosa ATCC 27853
[4] = system: P. aeruginosa MDR clinical isolate; assay: MIC, Gram-negative bacteria: P. aeruginosa MDR clinical isolate; conditions: Pseudomonas aeruginosa, read-out: Minimal Inhibitory Concentration (MIC) P. aeruginosa MDR clinical isolate
[5] = Acinetobacter baumannii, ATCC19606, read-out: Minimal Inhibitory Concentration (MIC), A. baumannii ATCC 19606
[6] = Escherichia coli, ATCC25922, read-out: Minimal Inhibitory Concentration (MIC), E. coli ATCC 25922
[7] = Escherichia coli, read-out: Minimal Inhibitory Concentration (MIC), E. coli BAS2006, OMP C, OMP F
[8] = Escherichia coli, read-out: Minimal Inhibitory Concentration (MIC), E. coli olC efflux defective
[9] = Escherichia coli, read-out: Minimal Inhibitory Concentration (MIC), E. coli permeability mutant BAS1314, IMP4213ZAB::TN10
[10] = Klebsiella pneumoniae, ATCC43816, read-out: Minimal Inhibitory Concentration (MIC), K. pneumoniae ATCC 43816
[11] = first unnamed S. aureus column (c4)
[12] = fourth unnamed S. aureus column (c8)
[13] = second unnamed S. aureus column (c6)
[14] = third unnamed S. aureus column (c7)

## CC1=C\[C@@H](O)CC(=O)Cc2nc(co2)C(=O)N2CCC[C@@H]2C(=O)O[C@H]([C@@H](C)COC(=O)Nc2csc(C)n2)[C@H](C)/C=C/C(=O)NC\C=C\1 [SA0110098]
E. faecium ATCC 35667
  MIC: 16 µg/mL (≈ 23.4 µM)
Gram-Negative Organisms; [5]
  MIC: > 64 µg/mL
Gram-Negative Organisms; [6]
  MIC: > 64 µg/mL
Gram-Negative Organisms; [7]
  MIC: 16 µg/mL (≈ 23.4 µM)
Gram-Negative Organisms; [8]
  MIC: 2 µg/mL (≈ 2.92 µM)
Gram-Negative Organisms; [9]
  MIC: 8 µg/mL (≈ 11.7 µM)
Gram-Negative Organisms; [10]
  MIC: > 64 µg/mL
E. faecium VRE; vanA
  MIC: 64 µg/mL (≈ 93.6 µM)
H. influenzae ATCC 49247
  MIC: 32 µg/mL (≈ 46.8 µM)
[1]
  MIC: > 64 µg/mL
S. pneumoniae
  MIC: 16 µg/mL (≈ 23.4 µM)
[2]
  MIC: > 64 µg/mL
[3]
  MIC: > 64 µg/mL
S. aureus; [11]
  MIC: 64 µg/mL (≈ 93.6 µM)
S. aureus; [12]
  MIC: 32 µg/mL (≈ 46.8 µM)
S. aureus; [13]
  MIC: 32 µg/mL (≈ 46.8 µM)
S. aureus; [14]
  MIC: 64 µg/mL (≈ 93.6 µM)
E. faecalis
  MIC: > 64 µg/mL
P. aeruginosa ATCC 27853
  MIC: > 64 µg/mL
[4]
  MIC: > 64 µg/mL

## CC1=C\[C@@H](O)CC(=O)Cc2nc(co2)C(=O)N2CCC[C@@H]2C(=O)O[C@H]([C@@H](C)COC(=O)Nc2cnccn2)[C@H](C)/C=C/C(=O)NC\C=C\1 [SA0110101]
E. faecium ATCC 35667
  MIC: 64 µg/mL (≈ 96.3 µM)
Gram-Negative Organisms; [5]
  MIC: > 64 µg/mL
Gram-Negative Organisms; [6]
  MIC: > 64 µg/mL
Gram-Negative Organisms; [7]
  MIC: 64 µg/mL (≈ 96.3 µM)
Gram-Negative Organisms; [8]
  MIC: 8 µg/mL (≈ 12 µM)
Gram-Negative Organisms; [9]
  MIC: 16 µg/mL (≈ 24.1 µM)
Gram-Negative Organisms; [10]
  MIC: > 64 µg/mL
E. faecium VRE; vanA
  MIC: > 64 µg/mL
H. influenzae ATCC 49247
  MIC: 64 µg/mL (≈ 96.3 µM)
[1]
  MIC: > 64 µg/mL
S. pneumoniae
  MIC: 32 µg/mL (≈ 48.1 µM)
[2]
  MIC: > 64 µg/mL
[3]
  MIC: > 64 µg/mL
S. aureus; [11]
  MIC: > 64 µg/mL
S. aureus; [12]
  MIC: > 64 µg/mL
S. aureus; [13]
  MIC: > 64 µg/mL
S. aureus; [14]
  MIC: > 64 µg/mL
E. faecalis
  MIC: > 64 µg/mL
P. aeruginosa ATCC 27853
  MIC: > 64 µg/mL
[4]
  MIC: > 64 µg/mL

## CC1=C\[C@@H](O)CC(=O)Cc2nc(co2)C(=O)N2CCC[C@@H]2C(=O)O[C@H]([C@@H](C)COC(=O)Nc2ccn(C)n2)[C@H](C)/C=C/C(=O)NC\C=C\1 [SA0110113]
E. faecium ATCC 35667
  MIC: 64 µg/mL (≈ 96 µM)
Gram-Negative Organisms; [5]
  MIC: > 64 µg/mL
Gram-Negative Organisms; [6]
  MIC: > 64 µg/mL
Gram-Negative Organisms; [7]
  MIC: 64 µg/mL (≈ 96 µM)
Gram-Negative Organisms; [8]
  MIC: 8 µg/mL (≈ 12 µM)
Gram-Negative Organisms; [9]
  MIC: 16 µg/mL (≈ 24 µM)
Gram-Negative Organisms; [10]
  MIC: > 64 µg/mL
E. faecium VRE; vanA
  MIC: > 64 µg/mL
H. influenzae ATCC 49247
  MIC: 64 µg/mL (≈ 96 µM)
[1]
  MIC: > 64 µg/mL
S. pneumoniae
  MIC: 8 µg/mL (≈ 12 µM)
[2]
  MIC: > 64 µg/mL
[3]
  MIC: > 64 µg/mL
S. aureus; [11]
  MIC: > 64 µg/mL
S. aureus; [12]
  MIC: > 64 µg/mL
S. aureus; [13]
  MIC: > 64 µg/mL
S. aureus; [14]
  MIC: > 64 µg/mL
E. faecalis
  MIC: > 64 µg/mL
P. aeruginosa ATCC 27853
  MIC: > 64 µg/mL
[4]
  MIC: > 64 µg/mL

## CC1=C\[C@@H](O)CC(=O)Cc2nc(co2)C(=O)N2CCC[C@@H]2C(=O)O[C@H]([C@@H](C)COC(=O)Nc2cc(C)on2)[C@H](C)/C=C/C(=O)NC\C=C\1 [SA0110115]
E. faecium ATCC 35667
  MIC: 32 µg/mL (≈ 47.9 µM)
Gram-Negative Organisms; [5]
  MIC: > 64 µg/mL
Gram-Negative Organisms; [6]
  MIC: > 64 µg/mL
Gram-Negative Organisms; [7]
  MIC: 64 µg/mL (≈ 95.8 µM)
Gram-Negative Organisms; [8]
  MIC: 8 µg/mL (≈ 12 µM)
Gram-Negative Organisms; [9]
  MIC: 16 µg/mL (≈ 24 µM)
Gram-Negative Organisms; [10]
  MIC: > 64 µg/mL
E. faecium VRE; vanA
  MIC: > 64 µg/mL
H. influenzae ATCC 49247
  MIC: 64 µg/mL (≈ 95.8 µM)
[1]
  MIC: > 64 µg/mL
S. pneumoniae
  MIC: 16 µg/mL (≈ 24 µM)
[2]
  MIC: > 64 µg/mL
[3]
  MIC: > 64 µg/mL
S. aureus; [11]
  MIC: > 64 µg/mL
S. aureus; [12]
  MIC: 64 µg/mL (≈ 95.8 µM)
S. aureus; [13]
  MIC: > 64 µg/mL
S. aureus; [14]
  MIC: > 64 µg/mL
E. faecalis
  MIC: > 64 µg/mL
P. aeruginosa ATCC 27853
  MIC: > 64 µg/mL
[4]
  MIC: > 64 µg/mL

## CC1=C\[C@@H](O)CC(=O)Cc2nc(co2)C(=O)N2CCC[C@@H]2C(=O)O[C@H]([C@@H](C)COC(=O)Nc2ccc3ccccc3n2)[C@H](C)/C=C/C(=O)NC\C=C\1 [SA0110117]
E. faecium ATCC 35667
  MIC: 16 µg/mL (≈ 22.4 µM)
Gram-Negative Organisms; [5]
  MIC: > 64 µg/mL
Gram-Negative Organisms; [6]
  MIC: > 64 µg/mL
Gram-Negative Organisms; [7]
  MIC: 8 µg/mL (≈ 11.2 µM)
Gram-Negative Organisms; [8]
  MIC: 2 µg/mL (≈ 2.8 µM)
Gram-Negative Organisms; [9]
  MIC: 4 µg/mL (≈ 5.6 µM)
Gram-Negative Organisms; [10]
  MIC: > 64 µg/mL
E. faecium VRE; vanA
  MIC: 32 µg/mL (≈ 44.8 µM)
H. influenzae ATCC 49247
  MIC: > 64 µg/mL
[1]
  MIC: > 64 µg/mL
S. pneumoniae
  MIC: 4 µg/mL (≈ 5.6 µM)
[2]
  MIC: > 64 µg/mL
[3]
  MIC: > 64 µg/mL
S. aureus; [11]
  MIC: 16 µg/mL (≈ 22.4 µM)
S. aureus; [12]
  MIC: 16 µg/mL (≈ 22.4 µM)
S. aureus; [13]
  MIC: 16 µg/mL (≈ 22.4 µM)
S. aureus; [14]
  MIC: 32 µg/mL (≈ 44.8 µM)
E. faecalis
  MIC: > 64 µg/mL
P. aeruginosa ATCC 27853
  MIC: > 64 µg/mL
[4]
  MIC: > 64 µg/mL

From US20200325177A1, “METHODS OF MAKING STREPTOGRAMIN COMPOSITIONS AND THE USE THEREOF” (THE REGENTS OF THE UNIVERSITY OF CALIFORNIA, priority 2017, published 2020)
